From US20190367963A1, “METHOD FOR SELECTING ODOR CONTROL SUBSTANCE” (KAO CORPORATION, priority 2017, published 2019)

Assays:
OR2W1 = target: T1, OR2W1 (Homo sapiens, UniProt Q9Y3N9); test: Luciferase reporter gene assay of OR2W1 expressing HEK293 cells; type: cell-based
T1 construct: expressed in transfected cells; host or cells: HEK293
T1 sequence (Q9Y3N9 1-320): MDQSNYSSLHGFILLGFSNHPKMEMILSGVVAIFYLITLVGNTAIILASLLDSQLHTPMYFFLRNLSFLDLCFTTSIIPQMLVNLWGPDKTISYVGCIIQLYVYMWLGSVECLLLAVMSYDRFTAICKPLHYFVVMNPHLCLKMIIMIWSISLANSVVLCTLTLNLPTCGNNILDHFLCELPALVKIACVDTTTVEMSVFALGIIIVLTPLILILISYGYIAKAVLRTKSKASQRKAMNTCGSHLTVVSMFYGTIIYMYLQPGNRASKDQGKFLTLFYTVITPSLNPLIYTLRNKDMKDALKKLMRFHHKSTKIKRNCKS
Text: (§1) Based on the sequence information registered in GenEank, genes encoding 427 human olfactory receptors including variants were each cloned. Each gene was cloned by PCR using human genomic DNA female (G1521: Promega) as the template. Each gene amplified by PCR was recombined downstream of a Flag-Rho tag sequence on a pME18S vector.
(§2) A gene encoding human RTP1S was inserted into the EcoRI/XhoI site of a pME18S vector.
427 HEK293 cells differently expressing one of 427 human olfactory receptors were produced. Reaction solutions having compositions shown in Table 1 were prepared and were left to stand in a clean bench for 15 minutes. The reaction solutions were added to each well of a multi-well plate (384 or 96-well plate, BioCoat), and HEK293 cells were then seeded. In the 384-well plate, 4.4 μL of a reaction solution and 40 μL of HEK293 cells (20×10^4 cells/cm^2) were added. In the 96-well plate, 10 μL of a reaction solution and 90 μL of HEK293 cells (3×10^5 cells/cm^2) were added. The cells were cultured in an incubator maintained at 37° C. and 5% CO2 for 24 hours. As a control, cells not expressing an olfactory receptor (mock) were prepared.
The olfactory receptor expressed in HEK293 cells interact with endogenous cellular Gas to activate adenylate cyclase and thereby increases the intracellular cAMP level. The measurement of the response of cells to an odorant, test substance, or antagonist in the present invention was performed by a luciferase reporter gene assay monitoring the increase in the intracellular cAMP level as a light emission value derived from a firefly luciferase gene (fluc2P-CRE-hygro). A Renilla luciferase gene fused to downstream of a CMV promoter (hRluc-CMV) was simultaneously transfected and was used as an internal standard for calibrating the error in gene transfer efficiency or the number of cells. The luciferase activity was measured from 2.5 to 4 hours after stimulation with an odorant or a test substance with a Dual-Glo™ luciferase assay system (Promega), following user's manual thereof. The value fLuc/hRluc was calculated by dividing the light emission value derived from firefly luciferase by the light emission value derived from Renilla luciferase. “Fold increase” as an indicator of the responsiveness of an olfactory receptor to stimulation with a test substance, and “odor response” (%) as an indicator of the activity level of an antagonist to the olfactory receptor, were calculated according to the following formula: […]
X: fLuc/hRluc, induced by stimulation with a test substance alone, and
Y: fLuc/hRluc, without stimulation with a test substance.
L-Arginine and 1-histidine were used as test substances. […]

[1] = tested on: 427 human olfactory receptors; test: Luciferase reporter gene assay of 427 human olfactory receptors expressed in HEK293 cells; type: cell-based; settings: test substance 10 mM
Text: as §1, §2
427 HEK293 cells differently expressing one of 427 human olfactory receptors were produced. Reaction solutions having compositions shown in Table 1 were prepared and were left to stand in a clean bench for 15 minutes. The reaction solutions were added to each well of a multi-well plate (384 or 96-well plate, BioCoat), and HEK293 cells were then seeded. […]
The olfactory receptor expressed in HEK293 cells interact with endogenous cellular Gas to activate adenylate cyclase and thereby increases the intracellular cAMP level. […] The luciferase activity was measured from 2.5 to 4 hours after stimulation with an odorant or a test substance with a Dual-Glo™ luciferase assay system (Promega), following user's manual thereof. The value fLuc/hRluc was calculated by dividing the light emission value derived from firefly luciferase by the light emission value derived from Renilla luciferase. […]

[2] = Sensory examination: PEA detection threshold value before and after nasal administration; type: in vivo; settings: 10 mM in saline, nasal spray, human examinees, one minute after spraying
Method: The action of 1-arginine, which is an OR2W1 selective ligand, on olfaction was evaluated by sensory examination. Three samples, saline (Otsuka Pharmaceutical Co., Ltd.), saline aqueous solution containing 10 mM 1-arginine, and saline aqueous solution containing 10 mM 1-histidine, were prepared and filled into nasal sprays (KT110-102, AS ONE Corporation). […] PEA aqueous solutions with 11 different concentrations from 0.001 to 100 WA were prepared as test solutions, and 3 mL of each of the solutions was respectively added to 20-mL glass vials (Maruemu Corporation).
The experiment was blinded to both an examiner and an examinee. The examiner set the spray spout in the nasal cavity of the examinee as deep as possible and sprayed once. The amount of liquid ejected thereby was about 100 to 200 μL. […] The concentration that gave a correct answer three consecutive times after answering an incorrect answer was determined as the detection threshold value. […] Before and after the nasal administration of a sample, detection threshold values of an examinee to PEA were measured. The rate of change in the threshold value was determined by calculating (threshold value concentration before sample nasal administration)/(threshold value concentration after sample nasal administration).

[3] = Sensory examination: odor intensity (labeled magnitude scale) on simultaneous exposure to odorant and test substance; type: in vivo, human; settings: test substance 10 mM in saline, ultrasonic nebulizer, LMS; for odor intensity of HCA used together with test substance: HCA 0.1 mM; for odor intensity of PEA used together with test substance: PEA 0.1 mM
Method: Whether the odor of an odorant was enhanced or not by simultaneous exposure to the odorant and 1-arginine was investigated by comparing with exposure to the odorant alone. PEA or hexyl cinnamic aldehyde (HCA) was used as the odorant. The odorant was added at a final concentration of 0.1 mM to a saline aqueous solution with 1-arginine (10 mM) and a saline aqueous solution with 1-histidine (10 mM) as a control. The resulting solutions were sprayed to an examinee for inhaling using an ultrasonic nebulizer (NE-U07: OMRON Corporation, atomization particle diameter: 1 to 8 μm (80% of total volume particle diameter distribution)) with a spray amount of about 170 μL (for about 20 seconds) at most, and odor intensity was evaluated.
The odor intensity was evaluated according to the method of Green, et al, (Chemical senses, 1996, 21: 323-34) with the labeled magnitude scale (LMS) shown below. That is, assuming the full scale length was 100%, labels were set to the following positions: Barely detectable: 1.4%, Weak: 6.1%, Moderate: 17.2%, Strong: 35.4%, Very strong: 53.3%, Strongest imaginable: 100%.

| SMILES | response of OR2W1 expressing cells (OR2W1) | responses of 427 olfactory receptors [1] | PEA detection threshold value after nasal administration [2] | odor intensity of HCA used together with test substance [3] | odor intensity of PEA used together with test substance [3] |
| --- | --- | --- | --- | --- | --- |
| N=C(N)NCCC[C@H](N)C(=O)O [1-arginine, L-Arginine] | responded to 1-arginine concentration dependently | no olfactory receptors other than OR2W1 responded | decreased in statistically significant manner | enhanced in statistically siggificant manner | enhanced in statistically siggificant manner |
| N[C@@H](Cc1c[nH]cn1)C(=O)O [1-histidine, L-Histidine] | did not respond | did not respond | not observed | the effect of enhancing the odor intensity was not observed | the effect of enhancing the odor intensity was not observed |
| CCCCCCC(C=O)=Cc1ccccc1 [HCA, 2-(phenylmethylidene)octanal] | did not respond | – | – | – | – |
| OCCc1ccccc1 [PEA, 2-phenylethanol] | responded | – | – | – | – |
